Source: US20060293323A1, “Therapeutic Combinations of erb B Kinase Inhibitors and Antineoplastic Therapies” (priority 2002, published 2006)
Counter-ions that a name gives are not always drawn.

Tests used:
[1] = test system: MDA-MB-453 human breast carcinoma cells; test: Paclitaxel-induced apoptosis in vitro, paclitaxel and CI-1033 alone or in combination; assay type: cell-based; conditions: 3-day exposure to paclitaxel alone
From the text: However, none of the inhibitors of the erbB family tyrosine kinases described above are irreversible and are pan erbB tyrosine kinase inhibitors. […] [Inoue, Clin. Cancer Res. 6:4874-84, 2000.]

[2] = test system: H125 human non-small cell lung cancer xenograft; assay type: in vivo; conditions: CI-1033 PO days 19-23 and 26-30; docetaxel IV days 19, 23, 27
Procedure: (§1) On Day 0 of the test, each mouse was surgically implanted (subcutaneously) with a fragment of tumor weighing approximately 30 mg. The mice were weighed weekly, and tumor size (width and length in mm) were measured three times each week with standard calipers. Tumor mass for each animal was calculated according to the formula: [formula] where “a” is width of the tumor in mm, and “b” is the length in mm. Evaluation of anticancer activity was evaluated based on the formula T-C, where “T” and “C” are the median time (in days) required for the treated and control (respectively) tumors to reach a pre-determined size of 750 mg (the “evaluation size”). […] Standard agents were diluted as described in the package inserts and administered at various dosage levels in 0.5 mL injections.
(§2) In each experiment, mice bearing established tumors were randomized into one of four treatment groups. One group served as control treatment groups. […] The third group was further divided into four subgroups, each of which received the designated standard agent by the route and schedules indicated below.
(§3) Group 4 was further subdivided into groups receiving combination therapy.

[3] = test system: murine colon carcinoma, C26; test: Subcutaneous murine colon carcinoma C26, CI-1033 and capecitabine; assay type: in vivo; conditions: for optimum tumor growth delay as single agent: CI-1033 40, 20, 10 mg/kg PO, capecitabine 750, 500 mg/kg PO days 14-16, 21-23, 28-30; for tumor free survivors: single agents or combinations
Procedure: as §1, §2, §3
Capecitabine was administered PO at doses of 750 and 500 mg/kg on days 14-16, 21-23, and 28-30.

[4] = test system: H125 human cell lung carcinoma xenografts; assay type: in vivo; conditions: CI-1033 orally days 32-35; topotecan IP days 26-30
Procedure: as §1, §2, §3

[5] = test system: OVCAR-5 Human Ovarian Cancer xenografts; test: Advanced OVCAR-5 xenografts, CI-1033 and cisplatin; assay type: in vivo
Procedure: One group served as control treatment groups.
Cisplatin at doses of 12, 6, 3, and 1.5 mg/kg was administered IV on days 28, 32, and 34.

[6] = test system: A431 human epidermoid, LX-1 lung, A549 lung and GEO colon carcinomas; conditions: several human tumor xenografts; cited from earlier work
in vivo = conditions: female, nude, mouse, in vivo, ip
Procedure: as §1, §2, §3
(§4) Etoposide was administered IP at doses of 80, 50, and 31 mg/kg on days 12, 16 and 20.

[7] = test system: H125 human non-small cell lung cancer xenograft; test: in vivo
Procedure: as §1, §2, §3, §4

NSCLC, renal cell cancer = test: Clinical administration of CI-1033 alone; assay type: in vivo, human; conditions: repeated courses and prolonged exposures, patients
From the text: The treatment may be prolonged, with or without an off drug rest period.

[8] = test system: L3.6pl human pancreatic carcinoma; test: Orthotopically implanted L3.6pl human pancreatic carcinoma in nude mice, CI-1033 and gemcitabine; assay type: in vivo; conditions: for loss of initial body weight during therapy: once daily, 5 days per week, 4 weeks
[9] = test system: SCC-7 Murine Squamous Cell Carcinoma; test: SCC-7 murine squamous cell carcinoma, CI-1033 with single-dose radiation
Procedure: Two studies were conducted. […] Radiation was delivered as either a single dose or as multiple fractions over a 5-day period.

Rif-1 sarcoma = test: Rif-1 sarcoma, CI-1033 with multiple doses of radiation; assay type: in vivo, murine
From the text: Radiation at 5 Gy for 5 days produced a tumor growth delay of 28.5 days. […] Data representative of this effect is provided on Table I and FIG. 2.

[10] = capecitabine single agent or capecitabine 750 or 500 mg/kg with CI-1033
[11] = CI-1033 5 mg/kg PO D 7-18 plus X-ray 10 Gy TO D 7
[12] = CI-1033 10 mg/kg PO D 7-18, no X-ray
[13] = CI-1033 10 mg/kg PO D 7-18 plus X-ray 10 Gy TO D 7
[14] = CI-1033 20 mg/kg PO D 7-18, no X-ray
[15] = CI-1033 20 mg/kg PO D 7-18 plus X-ray 10 Gy TO D 7
[16] = CI-1033 40 mg/kg PO D 7-18, no X-ray
[17] = CI-1033 40 mg/kg PO D 7-18 plus X-ray 10 Gy TO D 7

Compound: CC(=O)O[C@H]1C(=O)[C@@]2(C)[C@H]([C@H](OC(=O)c3ccccc3)[C@]3(O)C[C@H](OC(=O)[C@H](O)[C@@H](NC(=O)c4ccccc4)c4ccccc4)C(C)=C1C3(C)C)[C@]1(OC(C)=O)CO[C@@H]1C[C@@H]2O [paclitaxel]
- cells undergoing apoptosis [1]: 23%

Compound: CC(=O)O[C@@]12CO[C@@H]1C[C@H](O)[C@@]1(C)C(=O)[C@H](O)C3=C(C)[C@@H](OC(=O)[C@H](O)[C@@H](NC(=O)OC(C)(C)C)c4ccccc4)C[C@@](O)([C@@H](OC(=O)c4ccccc4)[C@H]21)C3(C)C [docetaxel, reference compound]
- optimum tumor growth delay as single agent [2]: 35.7 days

Compound: CCCCCOC(=O)Nc1nc(=O)n([C@@H]2O[C@H](C)[C@@H](O)[C@H]2O)cc1F [capecitabine, 5′-deoxy-5-fluoro-N-[(pentyloxy)carbonyl]-cytidine]
- optimum tumor growth delay as single agent [3]: 22.5 days
- complete responses [3, 10]: 3/6
- partial responses [3, 10]: 2/6
- tumor free survivors [3]: 8%

Compound: CC[C@@]1(O)C(=O)OCc2c1cc1n(c2=O)Cc2cc3c(CN(C)C)c(O)ccc3nc2-1 [topotecan, (S)-10-[(dimethylamino)methyl]-4-ethyl-4,9-dihydroxy-1H-pyrano[3′,4′:6,7]indolizino[1,2-b]quinoline-3,14-(4H,12H )-dione monohydrochloride]
- anticancer effectiveness measured by tumor growth delay, single agents [4]: meaningful anticancer effectiveness

Compound: N.N.[Cl][Pt][Cl] [cisplatin, cis-diaminodichloroplatinum (II)]
- anticancer effects when administered alone ([5]; CI-1033 PO days 28-37, cisplatin IV days 28, 32, 34): Neither cisplatin nor CI-1033 when administered alone produced meaningful anticancer effects
- tumor growth delay (T-C) ([5]; cisplatin alone 12 mg/kg): 10 days

Compound: COc1cc2ncnc(Nc3ccc(F)c(Cl)c3)c2cc1OCCCN1CCOCC1 [Iressa]
- therapeutic effect of combination with paclitaxel versus either agent alone [6]: greater therapeutic effect

Compound: COc1cc([C@@H]2c3cc4c(cc3[C@@H](O[C@@H]3O[C@@H]5CO[C@@H](C)O[C@H]5[C@H](O)[C@H]3O)[C@H]3COC(=O)[C@H]23)OCO4)cc(OC)c1O [etoposide, 4′-demethylepipodophyllotoxin 9-[4,6-0-(R)-ethylidene-(beta)-D-glucopyranoside]]
- MTD (in vivo): 50 mg/kg
- delaying the growth of H125 as a single agent ([7]; etoposide IP days 12, 16, 20 at 50 mg/kg, CI-1033 200, 124, 77 mg/kg): relatively ineffective
- tolerability ([7]; etoposide doses 80, 50, 31 mg/kg IP): well tolerated only at the lowest dose tested

Compound: C=CC(=O)Nc1cc2c(Nc3ccc(F)c(Cl)c3)ncnc2cc1OCCCN1CCOCC1 [CI-1033, N-[4-(3-chloro-4-fluoro-phenylamino)-7-(3-morpholin-4-yl-propoxy)-quinazolin-6-yl]-acrylamide]
- cumulative toxicity (NSCLC, renal cell cancer): no evidence of cumulative toxicity
- loss of initial body weight during therapy ([8]; CI-1033 10 mg/kg orally): 6%
- loss of initial body weight during therapy ([8]; CI-1033 30 mg/kg orally): 9%
- body weight between the end of therapy and terminal sacrifice ([8]; CI-1033 10 and 30 mg/kg): gained weight
- optimum tumor growth delay as single agent [3]: 3.6 days
- tumor free survivors [3]: 0%
- optimum tumor growth delay as single agent [2]: 11.7 days
- % Weight Change (maximum treatment-related weight loss) [9, 11]: −15%
- CR (complete response) [9, 11]: 2/6
- T − C [9, 11]: 11.1 days
- Toxic Deaths [9, 11]: 0/6
- % Weight Change (maximum treatment-related weight loss) [9, 12]: −1%
- Toxic Deaths [9, 12]: 0/6
- T − C ([9]; CI-1033 10 mg/kg PO D 7-18, no X-ray, evaluation size 750 mg): 1.3 days
- % Weight Change (maximum treatment-related weight loss) [9, 13]: −13%
- PR (partial response) [9, 13]: 1/6
- T − C [9, 13]: 9.7 days
- Toxic Deaths [9, 13]: 0/6
- % Weight Change (maximum treatment-related weight loss) [9, 14]: −1%
- Toxic Deaths [9, 14]: 0/6
- T − C ([9]; CI-1033 20 mg/kg PO D 7-18, no X-ray, evaluation size 750 mg): 0.2 days
- % Weight Change (maximum treatment-related weight loss) [9, 15]: −15%
- CR (complete response) [9, 15]: 2/6
- PR (partial response) [9, 15]: 1/6
- T − C [9, 15]: 20.4 days
- Toxic Deaths [9, 15]: 0/6
- % Weight Change (maximum treatment-related weight loss) [9, 16]: −2%
- Toxic Deaths [9, 16]: 0/6
- T − C ([9]; CI-1033 40 mg/kg PO D 7-18, no X-ray, evaluation size 750 mg): 0.9 days
- % Weight Change (maximum treatment-related weight loss) [9, 17]: −14%
- CR (complete response) [9, 17]: 5/6
- T − C [9, 17]: 26.0 days
- Toxic Deaths [9, 17]: 0/6
- enhancement of antitumor effect by combination with radiation ([9]; single-dose radiation 1 hour after first of 12 PO doses of CI-1033): 91%
- enhancement compared to radiation alone (Rif-1 sarcoma; 5 Gy radiation for 5 days, each 1 hour after daily CI-1033): 42%
- tumor growth delay (Rif-1 sarcoma; CI-1033 alone, 5-day treatment schedule): 3.7 days

Compound: Nc1ccn([C@@H]2O[C@H](CO)[C@@H](O)C2(F)F)c(=O)n1 [gemcitabine, 2′-deoxy-2′,2′-difluoro-cytidine, reference compound]
- loss of initial body weight at terminal sacrifice ([8]; gemcitabine alone 125 mg/kg twice weekly): 4%
- body weight change over the therapy period ([8]; gemcitabine alone 125 mg/kg twice weekly, tumor bearing nude mice): slight weight gain
